# Laboratory results taken from US10167262B2, “Herbicidal substituted 3-arylpyrazoles” (FMC CORPORATION, priority 2014, dated 2019).
# Where two headings read alike, the source gives them in different places.
# Key:
# Assay type in all cases: in vivo
# wild oat (Avena fatua) = test: Test C postemergence greenhouse test, plant response rating 0-100; conditions: Avena fatua, post-emergence
# How it was run: (§1)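 Postemergence spray onto 1–4-leaf potted seedlings, greenhouse incubation 13–15 days. Visual percent-control rating (0–100) against untreated plants.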
# kochia (Kochia scoparia) = test: as above; conditions: Bassia scoparia, post-emergence
# How it was run: as §1
# [1] = test system: chickweed (common chickweed, Stellaria media); test: as above; conditions: Stellaria media, post-emergence
# How it was run: as §1
# corn (Zea mays) = test: Test C pre-/postemergence greenhouse test, plant response rating 0-100; conditions: Zea mays; for Corn plant response rating (crop injury, 0 = no effect, 100 = complete kill) at 250 g/ha: 250 g ai/ha
# How it was run: (§2)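 Scores run from 0, no effect, to 100, complete control, assigned by eye after treated plants and controls spent 13 to 15 days in a greenhouse. Soil-applied treatment went onto freshly sown seed in loam and sand; foliar treatment hit seedlings at the 1- to 4-leaf stage.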
# [2] = test system: winter wheat (Triticum aestivum); test: as above; conditions: Triticum aestivum; for plant injury at 62 g/ha: 62 g ai/ha; for plant injury at 125 g/ha: 125 g ai/ha; for plant injury at 250 g/ha: 250 g ai/ha
# How it was run: as §2
# [3] = test system: Italian ryegrass (Lolium multiflorum); test: as above; conditions: Lolium multiflorum; for pest or weed control at 62 g/ha: 62 g ai/ha; for pest or weed control at 125 g/ha: 125 g ai/ha; for pest or weed control at 250 g/ha: 250 g ai/ha
# How it was run: as §2
# [4] = test system: blackgrass (Alopecurus myosuroides); test: as above; conditions: Alopecurus myosuroides; for pest or weed control at 62 g/ha: 62 g ai/ha; for pest or weed control at 125 g/ha: 125 g ai/ha; for pest or weed control at 250 g/ha: 250 g ai/ha
# How it was run: as §2
# soybean (Glycine max) = test: as above; conditions: Glycine max; for plant injury at 62 g/ha: 62 g ai/ha; for plant injury at 125 g/ha: 125 g ai/ha; for plant injury at 250 g/ha: 250 g ai/ha
# How it was run: as §2
# [5] = test system: galium (catchweed bedstraw, Galium aparine); test: as above; conditions: Galium; for pest or weed control at 62 g/ha: 62 g ai/ha; for pest or weed control at 125 g/ha: 125 g ai/ha; for pest or weed control at 250 g/ha: 250 g ai/ha
# How it was run: as §2
# [6] = test system: giant foxtail (Setaria faberii); test: as above; conditions: Setaria faberi; for pest or weed control at 62 g/ha: 62 g ai/ha; for pest or weed control at 125 g/ha: 125 g ai/ha; for pest or weed control at 250 g/ha: 250 g ai/ha
# How it was run: as §2
# [7] = test system: large (Lg) crabgrass (Digitaria sanguinalis); test: as above; conditions: Digitaria sanguinalis; for pest or weed control at 62 g/ha: 62 g ai/ha; for pest or weed control at 125 g/ha: 125 g ai/ha; for pest or weed control at 250 g/ha: 250 g ai/ha
# How it was run: as §2
# [8] = test system: ragweed (common ragweed, Ambrosia elatior); test: as above; conditions: Ambrosia artemisiifolia; for pest or weed control at 62 g/ha: 62 g ai/ha; for pest or weed control at 250 g/ha: 250 g ai/ha
# How it was run: as §2
# [9] = test system: yellow nutsedge (Cyperus esculentus); test: as above; conditions: Cyperus; for pest or weed control at 62 g/ha: 62 g ai/ha; for pest or weed control at 125 g/ha: 125 g ai/ha; for pest or weed control at 250 g/ha: 250 g ai/ha
# How it was run: as §2
# [10] = test system: pigweed (Amaranthus retroflexus); test: as above; conditions: Amaranthus retroflexus; for pest or weed control at 62 g/ha: 62 g ai/ha; for pest or weed control at 125 g/ha: 125 g ai/ha; for pest or weed control at 250 g/ha: 250 g ai/ha
# How it was run: as §2
# [11] = post-emergence, Postemergence, scale 0 to 100
# [12] = pre-emergence, Preemergence, 500 g ai/ha
# [13] = post-emergence, Postemergence, read-out: Plant response rating (0 to 100), Wheat
# [14] = pre-emergence, Preemergence, read-out: Plant response rating, Wheat
# [15] = post-emergence, Postemergence, read-out: Plant response rating (0 to 100), Ryegrass, Italian
# [16] = pre-emergence, Preemergence, read-out: Plant response rating, Ryegrass, Italian
# [17] = pre-emergence, Preemergence, read-out: Plant response rating, Blackgrass
# [18] = post-emergence, Postemergence, read-out: Plant response rating (0 to 100), Soybean
# [19] = pre-emergence, Preemergence, read-out: Plant response rating, Soybean
# [20] = post-emergence, Postemergence, read-out: Plant response rating (0 to 100), Galium
# [21] = pre-emergence, Preemergence, read-out: Plant response rating, Galium
# [22] = post-emergence, Postemergence, read-out: Plant response rating (0 to 100), Foxtail, Giant
# [23] = pre-emergence, Preemergence, read-out: Plant response rating, Foxtail, Giant
# [24] = post-emergence, Postemergence, read-out: Plant response rating (0 to 100), Crabgrass, Large
# [25] = pre-emergence, Preemergence, read-out: Plant response rating, Crabgrass, Large
# [26] = post-emergence, Postemergence, read-out: Plant response rating (0 to 100), Nutsedge, Yellow
# [27] = pre-emergence, Preemergence, read-out: Plant response rating, Nutsedge, Yellow
# [28] = post-emergence, Postemergence, read-out: Plant response rating (0 to 100), Pigweed
# [29] = pre-emergence, Preemergence, read-out: Plant response rating, Pigweed
smiles,measurement,setting,value
"Clc1cc(Cl)cc(-c2n[nH]cc2C(=NN2CCCC2)c2ccccc2)c1 [Compound 30, N-[[3-(3,5-dichlorophenyl)-1H-pyrazol-4-yl]phenylmethylene]-1-pyrrolidinamine]",pest or weed control at 62 g/ha,wild oat (Avena fatua); 62 g ai/ha,0%
same,pest or weed control at 125 g/ha,wild oat (Avena fatua); 125 g ai/ha,0%
same,pest or weed control at 250 g/ha,"wild oat (Avena fatua); 250 g ai/ha, scale 0 to 100",0%
same,pest or weed control at 62 g/ha,kochia (Kochia scoparia); 62 g ai/ha,40%
same,pest or weed control at 125 g/ha,kochia (Kochia scoparia); 125 g ai/ha,85%
same,pest or weed control at 250 g/ha,"kochia (Kochia scoparia); 250 g ai/ha, scale 0 to 100",98%
same,pest or weed control at 31 g/ha,[1]; 31 g ai/ha,100%
same,pest or weed control at 62 g/ha,[1]; 62 g ai/ha,100%
same,pest or weed control at 125 g/ha,[1]; 125 g ai/ha,100%
same,pest or weed control at 250 g/ha,"[1]; 250 g ai/ha, scale 0 to 100",100%
same,plant injury at 31 g/ha,"corn (Zea mays); post-emergence, Postemergence, 31 g ai/ha",0%
same,plant injury at 62 g/ha,"corn (Zea mays); post-emergence, Postemergence, 62 g ai/ha",0%
same,plant injury at 125 g/ha,"corn (Zea mays); post-emergence, Postemergence, 125 g ai/ha",0%
same,"Corn plant response rating (crop injury, 0 = no effect, 100 = complete kill) at 250 g/ha",corn (Zea mays); [11],0%
same,"Corn plant response rating (crop injury, 0 = no effect, 100 = complete kill) at 62 g/ha","corn (Zea mays); pre-emergence, Preemergence, 62 g ai/ha",0%
same,"Corn plant response rating (crop injury, 0 = no effect, 100 = complete kill) at 125 g/ha","corn (Zea mays); pre-emergence, Preemergence, 125 g ai/ha",0%
same,"Corn plant response rating (crop injury, 0 = no effect, 100 = complete kill) at 250 g/ha","corn (Zea mays); pre-emergence, Preemergence",0%
same,"Corn plant response rating (crop injury, 0 = no effect, 100 = complete kill) at 500 g/ha",corn (Zea mays); [12],0%
same,plant injury at 62 g/ha,[2]; [13],0%
same,plant injury at 125 g/ha,[2]; [13],0%
same,plant injury at 250 g/ha,[2]; [11],0%
same,plant injury at 62 g/ha,[2]; [14],0%
same,plant injury at 125 g/ha,[2]; [14],0%
same,plant injury at 250 g/ha,"[2]; pre-emergence, Preemergence",0%
same,pest or weed control at 62 g/ha,[3]; [15],0%
same,pest or weed control at 125 g/ha,[3]; [15],0%
same,pest or weed control at 250 g/ha,[3]; [11],0%
same,pest or weed control at 62 g/ha,[3]; [16],0%
same,pest or weed control at 125 g/ha,[3]; [16],0%
same,pest or weed control at 250 g/ha,"[3]; pre-emergence, Preemergence",0%
same,pest or weed control at 500 g/ha,[3]; [12],0%
same,pest or weed control at 31 g/ha,"[4]; post-emergence, Postemergence, 31 g ai/ha, read-out: Plant response rating (0 to 100), Blackgrass",0%
same,pest or weed control at 62 g/ha,"[4]; post-emergence, Postemergence, read-out: Plant response rating (0 to 100), Blackgrass",0%
same,pest or weed control at 125 g/ha,"[4]; post-emergence, Postemergence, scale 0 to 100, read-out: Plant response rating, Blackgrass",0%
same,pest or weed control at 250 g/ha,[4]; [11],0%
same,pest or weed control at 62 g/ha,[4]; [17],0%
same,pest or weed control at 125 g/ha,[4]; [17],0%
same,pest or weed control at 250 g/ha,"[4]; pre-emergence, Preemergence",0%
same,pest or weed control at 500 g/ha,[4]; [12],0%
same,plant injury at 62 g/ha,soybean (Glycine max); [18],0%
same,plant injury at 125 g/ha,soybean (Glycine max); [18],0%
same,plant injury at 250 g/ha,soybean (Glycine max); [11],0%
same,plant injury at 62 g/ha,soybean (Glycine max); [19],0%
same,plant injury at 125 g/ha,soybean (Glycine max); [19],0%
same,plant injury at 250 g/ha,"soybean (Glycine max); pre-emergence, Preemergence",0%
same,plant injury at 500 g/ha,soybean (Glycine max); [12],0%
same,pest or weed control at 31 g/ha,"[5]; post-emergence, Postemergence, 31 g ai/ha, read-out: Plant response rating (0 to 100), Galium",0%
same,pest or weed control at 62 g/ha,[5]; [20],0%
same,pest or weed control at 125 g/ha,[5]; [20],5%
same,pest or weed control at 250 g/ha,[5]; [11],5%
same,pest or weed control at 62 g/ha,[5]; [21],0%
same,pest or weed control at 125 g/ha,[5]; [21],0%
same,pest or weed control at 250 g/ha,"[5]; pre-emergence, Preemergence",5%
same,pest or weed control at 500 g/ha,[5]; [12],10%
same,pest or weed control at 31 g/ha,"[6]; post-emergence, Postemergence, 31 g ai/ha, read-out: Plant response rating (0 to 100), Foxtail, Giant",0%
same,pest or weed control at 62 g/ha,[6]; [22],0%
same,pest or weed control at 125 g/ha,[6]; [22],0%
same,pest or weed control at 250 g/ha,[6]; [11],0%
same,pest or weed control at 62 g/ha,[6]; [23],0%
same,pest or weed control at 125 g/ha,[6]; [23],0%
same,pest or weed control at 250 g/ha,"[6]; pre-emergence, Preemergence",0%
same,pest or weed control at 500 g/ha,[6]; [12],0%
same,pest or weed control at 31 g/ha,"[7]; post-emergence, Postemergence, 31 g ai/ha, read-out: Plant response rating (0 to 100), Crabgrass, Large",0%
same,pest or weed control at 62 g/ha,[7]; [24],0%
same,pest or weed control at 125 g/ha,[7]; [24],0%
same,pest or weed control at 250 g/ha,[7]; [11],0%
same,pest or weed control at 62 g/ha,[7]; [25],0%
same,pest or weed control at 125 g/ha,[7]; [25],0%
same,pest or weed control at 250 g/ha,"[7]; pre-emergence, Preemergence",0%
same,pest or weed control at 500 g/ha,[7]; [12],0%
same,pest or weed control at 62 g/ha,"[8]; post-emergence, Postemergence, read-out: Plant response rating (0 to 100), Ragweed",20%
same,pest or weed control at 125 g/ha,"[8]; post-emergence, Postemergence, 125 g ai/ha, read-out: Plant response rating (0 to 100), Ragweed",35%
same,pest or weed control at 250 g/ha,[8]; [11],90%
same,pest or weed control at 62 g/ha,"[8]; pre-emergence, Preemergence, read-out: Plant response rating, Ragweed",50%
same,pest or weed control at 250 g/ha,"[8]; pre-emergence, Preemergence",75%
same,pest or weed control at 500 g/ha,[8]; [12],100%
same,pest or weed control at 62 g/ha,[9]; [26],0%
same,pest or weed control at 125 g/ha,[9]; [26],0%
same,pest or weed control at 250 g/ha,[9]; [11],0%
same,pest or weed control at 62 g/ha,[9]; [27],0%
same,pest or weed control at 125 g/ha,[9]; [27],0%
same,pest or weed control at 250 g/ha,"[9]; pre-emergence, Preemergence",0%
same,pest or weed control at 500 g/ha,[9]; [12],0%
same,pest or weed control at 62 g/ha,[10]; [28],100%
same,pest or weed control at 125 g/ha,[10]; [28],100%
same,pest or weed control at 250 g/ha,[10]; [11],100%
same,pest or weed control at 62 g/ha,[10]; [29],60%
same,pest or weed control at 125 g/ha,[10]; [29],98%
same,pest or weed control at 250 g/ha,"[10]; pre-emergence, Preemergence",100%
same,pest or weed control at 500 g/ha,[10]; [12],100%
